Reference: ChEMBL document CHEMBL1132291, “Synthesis and serotonergic activity of substituted 2, N-benzylcarboxamido-5-(2-ethyl-1-dioxoimidazolidinyl)-N, N-dimethyltryptamine derivatives: novel antagonists for the vascular 5-HT(1B)-like receptor” (J Med Chem, 1999)

Tests used:
[1] = system: Adrenergic receptor alpha-1 (Oryctolagus cuniculus); test: Alpha-1 adrenergic receptor affinity using ring preparations of rabbit thoracic aorta (RbTA).
[2] = system: 5-hydroxytryptamine receptor 1B (Oryctolagus cuniculus); test: Binding affinity against vascular 5-hydroxytryptamine 1B receptor, measured using ring preparations of rabbit saphenous vein (RbSV)
[3] = system: 5-hydroxytryptamine receptor 2A (Oryctolagus cuniculus); test: Binding affinity for 5-hydroxytryptamine 2A receptor of rabbit aorta ring preparations
[4] = system: 5-hydroxytryptamine receptor 1B (Oryctolagus cuniculus); test: The vascular 5-hydroxytryptamine 1B receptor affinity was assessed using ring preparations of rabbit saphenous vein (RbSV).
[5] = system: 5-hydroxytryptamine receptor 1B (Oryctolagus cuniculus); test: The vascular 5-hydroxytryptamine 1B receptor affinity was assessed using ring preparations of rabbit saphenous vein(RbSV).
[6] = molecular target: T1, 5-hydroxytryptamine receptor 1A (Rattus norvegicus, UniProt P19327); test: Binding affinity against 5-hydroxytryptamine 1A receptor in rat cortex homogenates.; format: tissue-based
T1 sequence (P19327 whole entry): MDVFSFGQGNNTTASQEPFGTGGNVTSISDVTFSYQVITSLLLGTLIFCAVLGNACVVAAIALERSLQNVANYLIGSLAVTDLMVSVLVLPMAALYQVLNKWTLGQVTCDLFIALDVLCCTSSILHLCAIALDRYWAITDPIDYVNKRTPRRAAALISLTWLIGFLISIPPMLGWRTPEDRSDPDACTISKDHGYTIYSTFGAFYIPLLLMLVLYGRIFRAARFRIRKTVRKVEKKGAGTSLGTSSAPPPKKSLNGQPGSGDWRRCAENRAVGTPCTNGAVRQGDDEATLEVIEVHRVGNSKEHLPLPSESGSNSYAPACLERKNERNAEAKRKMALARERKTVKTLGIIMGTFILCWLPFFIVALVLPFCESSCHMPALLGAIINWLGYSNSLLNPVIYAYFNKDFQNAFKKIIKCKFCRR

[7] = molecular target: T2, 5-hydroxytryptamine receptor 2C (Rattus norvegicus, UniProt P08909); test: Binding affinity against 5-hydroxytryptamine 2C receptor in rat cortex homogenates.; format: tissue-based
T2 sequence (P08909 whole entry): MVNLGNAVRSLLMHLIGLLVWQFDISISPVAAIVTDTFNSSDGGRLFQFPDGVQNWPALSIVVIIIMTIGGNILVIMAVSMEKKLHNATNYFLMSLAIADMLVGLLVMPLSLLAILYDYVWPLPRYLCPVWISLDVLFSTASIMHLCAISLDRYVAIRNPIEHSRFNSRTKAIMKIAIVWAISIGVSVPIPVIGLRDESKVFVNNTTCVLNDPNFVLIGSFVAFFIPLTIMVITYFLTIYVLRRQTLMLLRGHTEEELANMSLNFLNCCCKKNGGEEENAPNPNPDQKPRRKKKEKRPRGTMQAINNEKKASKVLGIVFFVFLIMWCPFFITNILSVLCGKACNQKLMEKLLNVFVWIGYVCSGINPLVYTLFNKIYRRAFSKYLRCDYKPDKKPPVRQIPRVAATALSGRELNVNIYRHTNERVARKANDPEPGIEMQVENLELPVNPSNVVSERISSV

| pKB [1] | pKB [2] | Compound | other results |
| --- | --- | --- | --- |
| < 5 | 6.2 | CN(C)CCc1c(C(=O)NCc2ccc(C(F)(F)F)cc2)[nH]c2ccc(CCN3C(=O)NC(C)(C)C3=O)cc12 | – |
| 4.73 | – | COc1ccc(CNC(=O)c2[nH]c3ccc(CCN4C(=O)NC(C)(C)C4=O)cc3c2CCN(C)C)cc1 | pKB [5]: 6.54 |
| 6 | 7 | Cc1ccc(CNC(=O)c2[nH]c3ccc(CCN4C(=O)NC(C)(C)C4=O)cc3c2CCN(C)C)cc1 | – |
| 5.35 | 5.81 | CN(C)CCc1c(C(=O)NCc2ccccc2Cl)[nH]c2ccc(CCN3C(=O)NC(C)(C)C3=O)cc12 | – |
| 5 | 6.61 | CN(C)CCc1c(C(=O)NCc2ccccc2O)[nH]c2ccc(CCN3C(=O)NC(C)(C)C3=O)cc12 | – |
| – | 5.5 | CN(C)CCc1c(C(=O)NCc2cccc3ccccc23)[nH]c2ccc(CCN3C(=O)NC(C)(C)C3=O)cc12 | – |
| – | 6.45 | CN(C)CCc1c(C(=O)NCc2cccc(Cl)c2)[nH]c2ccc(CCN3C(=O)NC(C)(C)C3=O)cc12 | – |
| 5.46 | 7.3 | CN(C)CCc1c(C(=O)NCc2ccc(F)cc2)[nH]c2ccc(CCN3C(=O)NC(C)(C)C3=O)cc12 | – |
| 4.52 | 5.91 | CN(C)CCc1c(C(=O)NCc2ccc(S(C)(=O)=O)cc2)[nH]c2ccc(CCN3C(=O)NC(C)(C)C3=O)cc12 | – |
| 5 | 5.77 | CN(C)CCc1c(C(=O)NCc2ccc(-c3ccccc3)cc2)[nH]c2ccc(CCN3C(=O)NC(C)(C)C3=O)cc12 | – |
| 4.52 | 6.19 | CN(C)CCc1c(C(=O)NCc2ccc(N)cc2)[nH]c2ccc(CCN3C(=O)NC(C)(C)C3=O)cc12 | – |
| 4.86 | 5.21 | CN(C)CCc1c(C(=O)Nc2ccccc2)[nH]c2ccc(CCN3C(=O)NC(C)(C)C3=O)cc12 | – |
| 5.86 | 7.59 | CN(C)CCc1c(C(=O)NCc2ccc(Cl)cc2)[nH]c2ccc(CCN3C(=O)NC(C)(C)C3=O)cc12 | – |
| 4.79 | 6.72 | CN(C)CCc1c(C(=O)NCc2ccccc2N)[nH]c2ccc(CCN3C(=O)NC(C)(C)C3=O)cc12 | – |
| 5.27 | 7.15 | CN(C)CCc1c(C(=O)NCc2ccccc2)[nH]c2ccc(CCN3C(=O)NC(C)(c4ccccc4)C3=O)cc12 (stereo unspecified) | – |

Continued, compound first:

| Compound | pKB [1] | pKB [2] | other results |
| --- | --- | --- | --- |
| CN(C)CCc1c(C(=O)NCc2ccccc2N)[nH]c2ccc(CCN3C(=O)CNC3=O)cc12 | 5.73 | 6.67 | – |
| CCOC(=O)c1[nH]c2ccc(CCN3C(=O)CNC3=O)cc2c1CCN(C)C | 5.43 | 7.42 | pKB [3]: < 5 |
| CN(C)CCc1c(C(=O)NCc2ccccc2)[nH]c2ccc(CCN3C(=O)N(C)C(C)(c4ccccc4)C3=O)cc12 (stereo unspecified) | 5.5 | 7.19 | – |
| CC(=O)Nc1ccccc1CNC(=O)c1[nH]c2ccc(CCN3C(=O)NC(C)(C)C3=O)cc2c1CCN(C)C | < 5 | – | pKB [4]: 6.04 |
| CN(C)CCc1c(C(=O)NCc2ccc(NS(C)(=O)=O)cc2)[nH]c2ccc(CCN3C(=O)NC(C)(C)C3=O)cc12 | < 4.5 | 5.65 | – |
| CN(C)CCc1c(C(=O)NCc2ccccc2N)[nH]c2ccc(CCN3C(=O)N(C)C(C)(c4ccccc4)C3=O)cc12 (stereo unspecified) | 4.78 | 6.64 | – |
| CCCCNC(=O)c1[nH]c2ccc(CCN3C(=O)CNC3=O)cc2c1CCN(C)C | – | 5.94 | pKB [3]: 5.2 |
| CC(=O)Nc1cccc(CNC(=O)c2[nH]c3ccc(CCN4C(=O)NC(C)(C)C4=O)cc3c2CCN(C)C)c1 | 4.5 | 5.68 | – |
| CN(C)CCc1c(C(=O)NCc2ccccc2)[nH]c2ccc(CCN3C(=O)NC(c4ccccc4)(c4ccccc4)C3=O)cc12 | 5 | 6.44 | – |
| CC(NC(=O)c1[nH]c2ccc(CCN3C(=O)NC(C)(C)C3=O)cc2c1CCN(C)C)c1ccccc1 (stereo unspecified) | 4.65 | 5.5 | pKB [3]: 5.59 |
| CN(C)CCc1c(C(N)=O)[nH]c2ccc(CCN3C(=O)CNC3=O)cc12 | – | < 5 | pKB [3]: < 5 |
| CN(C)CCc1c(C(=O)NCc2cccc(N)c2)[nH]c2ccc(CCN3C(=O)NC(C)(C)C3=O)cc12 | 4.58 | 6.52 | – |
| CN(C)CCc1c(C(=O)NCc2ccccc2)[nH]c2ccc(CCN3C(=O)CNC3=O)cc12 | 5.77 | 7.36 | Ki [6]: 67.6 µM; Ki [7]: 1.91 µM; pKB [3]: 6.09 |
| CN(C)CCc1c(C(=O)NCC(N)=O)[nH]c2ccc(CCN3C(=O)NC(C)(C)C3=O)cc12 | – | < 5 | – |
| CN(C)CCc1c(C(=O)N(C)Cc2ccccc2)[nH]c2ccc(CCN3C(=O)NC(C)(C)C3=O)cc12 | 5.8 | 5.8 | pKB [3]: 6.03 |
| CN(C)CCc1c(C(=O)NCc2ccc(Cl)cc2)[nH]c2ccc(CCN3C(=O)CNC3=O)cc12 | 6.47 | 7.74 | pKB [3]: 6.31 |

| Compound | pKB [1] | pKB [2] | other results |
| --- | --- | --- | --- |
| CN(C)CCc1c(C(=O)NCc2ccccc2)[nH]c2ccc(CCN3C(=O)NC4(CCCC4)C3=O)cc12 | 5.48 | 7.2 | – |
| CCCCNC(=O)c1[nH]c2ccc(CCN3C(=O)NC(C)(C)C3=O)cc2c1CCN(C)C | – | 5.47 | pKB [3]: < 5 |
| CN(C)CCc1c(C(=O)NCCc2ccccc2)[nH]c2ccc(CCN3C(=O)NC(C)(C)C3=O)cc12 | – | 5.57 | pKB [3]: 5.35 |
| CN(C)CCc1c(C(=O)NCc2ccccc2N)[nH]c2ccc(CCN3C(=O)NC(c4ccccc4)(c4ccccc4)C3=O)cc12 | 5.43 | 6.31 | – |
| CN(C)CCc1c(C(=O)NCc2ccccc2)[nH]c2ccc(CCN3C(=O)C4CCCN4C3=O)cc12 (stereo unspecified) | 5.31 | 6.66 | – |
| CN(C)CCc1c(C(=O)NCc2ccc(Cl)c(Cl)c2)[nH]c2ccc(CCN3C(=O)NC(C)(C)C3=O)cc12 | 5 | 6.5 | – |
| CN(C)CCc1c(C(=O)N(C)C)[nH]c2ccc(CCN3C(=O)CNC3=O)cc12 | – | < 5 | pKB [3]: < 5 |
| CN(C)CCc1c(C(=O)NCc2ccccc2)[nH]c2ccc(CCN3C(=O)NC(C)(C)C3=O)cc12 | 5.2 | 7.09 | Ki [6]: 14.8 µM; Ki [7]: 2.19 µM; pKB [3]: 5.6 |
| CN(C)CCc1c(C(=O)NCc2cccc(NS(C)(=O)=O)c2)[nH]c2ccc(CCN3C(=O)NC(C)(C)C3=O)cc12 | 4.51 | 5.67 | – |
| CN(C)CCc1c(C(=O)NCc2ccccc2N)[nH]c2ccc(CCN3C(=O)NC(C)(c4ccccc4)C3=O)cc12 (stereo unspecified) | 5.21 | 6.65 | – |
| CONC(=O)c1[nH]c2ccc(CCN3C(=O)NC(C)(C)C3=O)cc2c1CCN(C)C | < 4.5 | 5.4 | – |
| CON(C)C(=O)c1[nH]c2ccc(CCN3C(=O)CNC3=O)cc2c1CCN(C)C | – | 5.76 | pKB [3]: 5.3 |
| CN(C)CCc1c(C(=O)NN)[nH]c2ccc(CCN3C(=O)NC(C)(C)C3=O)cc12 | < 4.5 | 5.48 | – |
| CNC(=O)c1[nH]c2ccc(CCN3C(=O)CNC3=O)cc2c1CCN(C)C | – | 5.94 | pKB [3]: < 5 |
| C#CCNC(=O)c1[nH]c2ccc(CCN3C(=O)NC(C)(C)C3=O)cc2c1CCN(C)C | 4.62 | 5.44 | – |
| COc1cccc(CNC(=O)c2[nH]c3ccc(CCN4C(=O)NC(C)(C)C4=O)cc3c2CCN(C)C)c1 | 5.17 | 6.47 | – |
